Key:
[1] = biological target: T1, NPY Y5 receptor (Homo sapiens, UniProt Q15761); assay: Radioligand (125I-PYY) binding to membrane suspensions, cloned human NPY Y5 receptor; parameters: expressed in transfected cells; host or cells: LM(tk-) cells (typically); details: 125I-PYY competition binding, membranes of transfected cells; read-out: Ki (nM), binding affinity of selected compounds
T1 sequence (Q15761 1-445): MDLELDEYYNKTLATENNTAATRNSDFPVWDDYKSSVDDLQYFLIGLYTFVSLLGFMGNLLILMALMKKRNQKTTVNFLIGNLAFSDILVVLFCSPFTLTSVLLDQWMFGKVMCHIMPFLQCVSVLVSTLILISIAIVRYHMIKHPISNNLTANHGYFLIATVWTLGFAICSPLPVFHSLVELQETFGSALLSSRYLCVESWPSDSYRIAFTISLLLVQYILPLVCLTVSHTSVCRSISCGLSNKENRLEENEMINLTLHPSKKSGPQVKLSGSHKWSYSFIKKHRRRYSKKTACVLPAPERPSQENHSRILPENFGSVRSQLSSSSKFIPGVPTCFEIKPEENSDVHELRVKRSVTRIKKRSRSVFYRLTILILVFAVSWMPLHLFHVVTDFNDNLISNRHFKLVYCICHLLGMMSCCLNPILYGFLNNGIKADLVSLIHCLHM
Procedure: The pharmacological properties of the compounds of the present invention were evaluated at the cloned human NPY Y5 receptor using the protocols disclosed in U.S. Pat. No. 6,124,331, the contents of which are hereby incorporated by reference, or in an assay as similarly described therein for NPY Y5 binding activity. The procedures for cell culture, transient transfection and membrane harvest, which are well known in the art, are described therein
Briefly, membrane suspensions from transfected cells (typically expressed in LM(tk-) cells) and ^125I-PYY radioligand (PerkinElmer, Waltham, Mass.) were diluted in binding buffer supplemented with 0.1% bovine serum albumin to yield an optimal membrane protein concentration so that ^125I-PYY bound by membranes in the assay was less than 10% of ^125I-PYY delivered to the sample (100,000 dpm/sample=0.08 nM for competition binding assays). Test compounds were diluted to desired concentrations with supplemented binding buffer in the presence of 30% DMSO. The binding assay was performed in 96-well polypropylene microtiter plates by mixing ^125I-PYY, test compound (25 μL), and finally, membrane suspensions (200 μL). Final DMSO=3%. Samples were incubated in at room temperature for about 120 min. Incubations were terminated by filtration over Whatman GF/C filters (pre-coated with 1% polyethyleneimine and air-dried before use), followed by washing with ice-cold binding buffer. Filter-trapped membranes were impregnated with MeltiLex solid scintillant (Wallac, Turku, Finland) and counted for ^125I-PYY in a Wallac MicroBeta Trilux. Non-specific binding was defined by 1000 nM porcine NPY. Specific binding was typically 80%; most non-specific binding was associated with the filter. Binding data were analyzed using nonlinear regression and statistical techniques available in the GraphPAD Prism package (San Diego, Calif.).

[2] = biological target: T1, NPY Y5 receptor; assay: NPY Y5-dependent inhibition of forskolin-stimulated cAMP accumulation; type: cell-based; parameters: expressed in transfected cells; details: effect on agonist (NPY) activity, cAMP HTRF
Procedure: Stably transfected cells were seeded into 96-well microtiter plates and cultured until confluent. To reduce the potential for receptor desensitization, the serum component of the media was reduced to 1.5% for 4 to 16 hours before the assay. Cells were washed in […], or HBS (150 mM NaCl, 20 mM HEPES, 1 mM CaCl2, 5 mM KCl, 1 mM MgCl2, and 10 mM glucose) supplemented with 0.1% bovine serum albumin plus 100 uM IBMX. Test compounds were diluted to desired concentrations with assay buffer in the presence of 10% DMSO, then transferred to the cell plate and allowed to incubate for 20 min at 37° C. in 5% CO2 (final DMSO=1%). Cells were then stimulated with NPY (up to 10 uM) for a period of 5 min, followed by forskolin (10 uM) for another 5 min. The assay was then terminated and intracellular cAMP was quantified by with highthroughput time-resolved fluorometry (HTRF kit from CisBio, Bedford, Mass.). The effect of the test compound on agonist (NPY) activity were analyzed using nonlinear regression and statistical techniques available in the GraphPAD Prism package (San Diego, Calif.).

| Compound | Ki [1] [nM] | function at the NPY Y5 receptor [2] |
| --- | --- | --- |
| CC(=O)N1CCN(CC(=O)Nc2ccc(-c3cc(F)cc(F)c3)cn2)CC1 [Example 1a, 2-(4-Acetyl-piperazin-1-yl)-N-[5-(3,5-difluoro-phenyl)-pyridin-2-yl]-acetamide] | 220 |  |
| CC(=O)N1CCN(CC(=O)Nc2ccc(-c3cc(F)cc(F)c3)cn2)C[C@@H]1C [Example 1e, 2-((S)-4-Acetyl-3-methyl-piperazin-1-yl)-N-[5-(3,5-difluoro-phenyl)-pyridin-2-yl]-acetamide] | 120 |  |
| CC(=O)N1CCC(CC(=O)Nc2ccc(-c3cc(F)cc(F)c3)cn2)CC1 [Example 2a, 2-(1-Acetyl-piperidin-4-yl)-N-[5-(3,5-difluoro-phenyl)-pyridin-2-yl]-acetamide] | 46 | antagonists |
| CS(=O)(=O)N1CCC(CC(=O)Nc2ccc(-c3cc(F)cc(F)c3)nc2)CC1 [Example 2aj, N-[6-(3,5-Difluoro-phenyl)-pyridin-3-yl]-2-(1-methanesulfonyl-piperidin-4-yl)-acetamide] | 28 |  |
| O=C(C[C@H]1CCN2C(=O)CC[C@H]2C1)Nc1ccc(-c2cc(F)cc(F)c2)cn1 [Example 3a] | 36 |  |
| O=C(C[C@H]1CCN2C(=O)OC[C@H]2C1)Nc1ccn(-c2ccc(Cl)cc2F)n1 [Example 3cc, N-[1-(4-Chloro-2-fluoro-phenyl)-1H-pyrazol-3-yl]-2-((7S,8aR)-3-oxo-hexahydro-oxazolo[3,4-a]pyridin-7-yl)-acetamide] | 8 |  |
| O=C(C[C@H]1CCN2C(=O)OC[C@H]2C1)Nc1cc(-c2cccc(C(F)(F)F)c2)no1 [Example 3hh, 2-((7S,8aR)-3-oxo-hexahydro-oxazolo[3,4-a]pyridin-7-yl)-N-[3-(3-trifluoromethyl-phenyl)-isoxazol-5-yl]-acetamide] | 39 |  |
| CC1(C)OC(=O)N2CCC(CC(=O)Nc3ccn(-c4ccccc4F)n3)CC21 (centres unmarked) [Example 3i, 2-(1,1-Dimethyl-3-oxo-hexahydro-oxazolo[3,4-a]pyridin-7-yl)-N-[1-(2-fluoro-phenyl)-1H-pyrazol-3-yl]-acetamide] | 50 |  |
| O=C(CC1CCN2C(=O)OCC2C1)Nc1cnc(-c2cc(F)cc(F)c2)cn1 (centres unmarked) [Example 3l, N-[5-(3,5-Difluoro-phenyl)-pyrazin-2-yl]-2-(3-oxo-hexahydro-oxazolo[3,4-a]pyridin-7-yl)-acetamide] | 25 |  |
| O=C(C[C@H]1CCN2C(=O)OC[C@H]2C1)Nc1ccc(-c2cc(F)cc(F)c2)cn1 [Example 3o, N-[5-(3,5-Difluoro-phenyl)-pyridin-2-yl]-2-((7S,8aR)-3-oxo-hexahydro-oxazolo[3,4-a]pyridin-7-yl)-acetamide] | 17 |  |
| CC(=O)N1CCC(C(C)(C)C(=O)Nc2ccc(-c3cc(F)cc(F)c3)cn2)CC1 [Example 4a, 2-(1-Acetyl-piperidin-4-yl)-N-[5-(3,5-difluoro-phenyl)-pyridin-2-yl]-isobutyramide] | 66 | antagonists |
| CC(=O)N1CCC(CC(=O)Nc2ccc(-c3ccccc3)cc2)CC1 [Example 5a, 2-(1-Acetyl-piperidin-4-yl)-N-biphenyl-4-yl-acetamide] | 120 |  |
| O=C(C1CCC1)N1CCC(C2(C(=O)Nc3ccc(-c4cc(F)cc(F)c4)cc3)CC2)CC1 [Example 5j] | 2.7 |  |
| O=C(c1ccccn1)N1CCC(C2(C(=O)Nc3ccc(-c4cc(F)cc(F)c4)cc3)CC2)CC1 [Example 5m] | 14 |  |
| Cn1nccc1C(=O)N1CCC(C(C)(C)C(=O)Nc2ccc(-c3cc(F)cc(F)c3)cn2)CC1 [Example 5q, N-[5-(3,5-Difluoro-phenyl)-pyridin-2-yl]-2-[1-(2-methyl-2H-pyrazole-3-carbonyl)-piperidin-4-yl]-isobutyramide] | 570 |  |

— patent US20110230497A1, “BIOLOGICALLY ACTIVE AMIDES” (H. Lundbeck A/S, priority 2008, published 2011)
